Experimental data: ChEMBL document CHEMBL5576079, “Discovery of a potent orally available pyrazolopyridone derivative as a novel selective bromodomain and extra-terminal domain (BET)-first bromodomain (BD1) inhibitor” (Bioorg Med Chem Lett, 2024)
Active and inactive are the calls of the source. The calls are words filed in the database; no cut-off is given here.

Tests used:
[1] = system: Monocyte; assay: Inhibition of LPS-induced MCP-1 production in mouse Monocyte
[2] = system: Mus musculus; assay: Anti-inflammatory activity in endotoxemia mouse model assessed as suppression of LPS-induced serum IL-6 level at 10 mg/kg, po preincubated for 30 mins followed by LPS stimulation and measured after 90 mins; format: functional, organism-based; conditions: time 120.0 min
[3] = Drug concentration in LPS induced mouse plasma at 100 mg/kg measured after 2 hrs; format: ADME, organism-based
[4] = Drug concentration in LPS induced mouse plasma at 10 mg/kg measured after 2 hrs; format: ADME, organism-based
[5] = system: Mus musculus; assay: Anti-inflammatory activity in endotoxemia mouse model assessed as suppression of LPS-induced serum MCP-1 level at 10 mg/kg, po preincubated for 30 mins followed by LPS stimulation and measured after 90 mins; format: functional, organism-based; conditions: time 120.0 min

Row | Compound | IC50 [1] [nM] | Activity [2] | concentration at 2 h [3] [ng/mL] | concentration at 2 h [4] [ng/mL] | Activity [5]
1 | Cc1sc2c(c1C)C(c1ccc(Cl)cc1)=N[C@@H](CC(=O)OC(C)(C)C)c1nnc(C)n1-2 | 2 |  |  |  | 
2 | Cc1csc(-c2cn(C)c(=O)c3cn(CC4CC(C(=O)NC5CCCCC5)CCN(C)C4)nc23)n1 (stereo unspecified) | 1 | Active | 707 | 39.1 | Active
